Columns and labels:
[1] = xn = mol fraction of the nth substance listed; settings: 94.9 kPa, Liquid, Vibrating tube method
[2] = refractive index (Na D-line) (dimensionless); xn = mol fraction of the nth substance listed; settings: 94.9 kPa, Liquid, (Schmidt +Haensch) refractometer (Model DSR lambda)

CCCCCCCCO [octan-1-ol] + Cc1ccccc1
Settings	mass density, [1] [kg/m3]	refractive index, [2]
293.15 K, x1 = 0.1041	859.2	1.48465
293.15 K, x1 = 0.1973	853.95	1.4763
293.15 K, x1 = 0.3018	848.87	1.4681
293.15 K, x1 = 0.4033	844.52	1.46072
293.15 K, x1 = 0.5035	840.66	1.45442
293.15 K, x1 = 0.6007	837.23	1.44894
293.15 K, x1 = 0.6996	834.03	1.44373
293.15 K, x1 = 0.793	831.2	1.43912
293.15 K, x1 = 0.9044	828.07	1.4338
293.15 K, x1 = 1	825.57	1.4295
298.15 K, x1 = 0.1041	854.47	1.48192
298.15 K, x1 = 0.1973	849.33	1.47333
298.15 K, x1 = 0.3018	844.4	1.46514
298.15 K, x1 = 0.4033	840.2	1.45795
298.15 K, x1 = 0.5035	836.46	1.45173
298.15 K, x1 = 0.6007	833.15	1.44634
298.15 K, x1 = 0.6996	830.05	1.44116
298.15 K, x1 = 0.793	827.33	1.43666
298.15 K, x1 = 0.9044	824.31	1.43178
298.15 K, x1 = 1	821.9	1.42748
303.15 K, x1 = 0.1041	849.63	1.47921
303.15 K, x1 = 0.1973	844.59	1.47041
303.15 K, x1 = 0.3018	839.8	1.46231
303.15 K, x1 = 0.4033	835.73	1.45514
303.15 K, x1 = 0.5035	832.13	1.44904
303.15 K, x1 = 0.6007	828.94	1.44377
303.15 K, x1 = 0.6996	825.95	1.43893
303.15 K, x1 = 0.793	823.32	1.43469
303.15 K, x1 = 0.9044	820.4	1.4298
303.15 K, x1 = 1	818.08	1.42561
308.15 K, x1 = 0.1041	844.83	1.47628
308.15 K, x1 = 0.1973	839.89	1.46762
308.15 K, x1 = 0.3018	835.26	1.45938
308.15 K, x1 = 0.4033	831.33	1.45234
308.15 K, x1 = 0.5035	827.86	1.44634
308.15 K, x1 = 0.6007	824.78	1.44118
308.15 K, x1 = 0.6996	821.9	1.43647
308.15 K, x1 = 0.793	819.36	1.43239
308.15 K, x1 = 0.9044	816.55	1.42757
308.15 K, x1 = 1	814.31	1.42369
313.15 K, x1 = 0.1041	840.03	1.47333
313.15 K, x1 = 0.1973	835.16	1.46463
313.15 K, x1 = 0.3018	830.67	1.45656
313.15 K, x1 = 0.4033	826.9	1.44956
313.15 K, x1 = 0.5035	823.56	1.44362
313.15 K, x1 = 0.6007	820.6	1.43864
313.15 K, x1 = 0.6996	817.82	1.43413
313.15 K, x1 = 0.793	815.37	1.43002
313.15 K, x1 = 0.9044	812.65	1.42559
313.15 K, x1 = 1	811.09	1.42169
318.15 K, x1 = 0.1041	835.18	1.47014
318.15 K, x1 = 0.1973	830.43	1.46186
318.15 K, x1 = 0.3018	826.08	1.45372
318.15 K, x1 = 0.4033	822.45	1.44685
318.15 K, x1 = 0.5035	819.25	1.44101
318.15 K, x1 = 0.6007	816.41	1.43601
318.15 K, x1 = 0.6996	813.74	1.43149
318.15 K, x1 = 0.793	811.38	1.4277
318.15 K, x1 = 0.9044	808.77	1.42342
318.15 K, x1 = 1	807.7	1.41973
323.15 K, x1 = 0.1041	831.72	1.46755
323.15 K, x1 = 0.1973	827.05	1.45882
323.15 K, x1 = 0.3018	822.76	1.45094
323.15 K, x1 = 0.4033	819.26	1.44415
323.15 K, x1 = 0.5035	816.18	1.43836
323.15 K, x1 = 0.6007	813.46	1.43341
323.15 K, x1 = 0.6996	810.87	1.42902
323.15 K, x1 = 0.793	808.58	1.42541
323.15 K, x1 = 0.9044	806.05	1.42136
323.15 K, x1 = 1	804.05	1.41783
333.15 K, x1 = 0.1041	822.45	1.46181
333.15 K, x1 = 0.1973	817.92	1.45314
333.15 K, x1 = 0.3018	813.92	1.44526
333.15 K, x1 = 0.4033	810.68	1.43873
333.15 K, x1 = 0.5035	807.88	1.43312
333.15 K, x1 = 0.6007	805.4	1.42831
333.15 K, x1 = 0.6996	803.05	1.42423
333.15 K, x1 = 0.793	800.97	1.42094
333.15 K, x1 = 0.9044	798.68	1.41714
333.15 K, x1 = 1	796.88	1.41407
